Experimental findings from patent US9777015B2, “Useful thiophene derivatives in the treatment of diabetes” (METABRAIN RESEARCH, priority 2012, dated 2017) are described below.

Like-named read-outs stand apart in the source and are kept apart here.

This test concerns hepatocytes isolated from Wistar rat liver. The test is described as follows: Test of inhibition of hepatic production of glucose (isolated hepatocytes, 3 h or 20 h incubation). Type of test: cell-based. The following applies: for activity at 50 µM / activity at 100 µM: Rattus norvegicus, Hepatocyte, hepatic glucose production, rat hepatocytes; for activity at 50 µM: compound at 50 μM, read-out: HGP % of ctrl @ 50 μM; for activity at 100 µM: compound at 100 μM, read-out: HGP % of ctrl @ 100 μM. The method, then:
The hepatocytes are isolated from Wistar rat liver having fasted for 24 h after perfusion of collagenase in the portal vein. The freshly isolated hepatocytes are sown in 6-well plates coated with collagen and containing an adhesion medium (Williams Medium). After adhesion, the medium is replaced with RPMI 1640 medium without any glucose, containing hydrocortisone (7.10^−5M) for a duration from 16 to 18 h. The next day, the glucose hepatic production test is conducted in a Krebs medium for 3 h. The basal conditions are cells incubated with only Krebs, the stimulated conditions are the cells placed in Krebs+lactate+pyruvate, the produced conditions are the cells exposed to chemical compounds in a Krebs/lactate/pyruvate medium. In the case when the compounds are dissolved in DMSO, all the conditions of the tests are met in the presence of a final concentration of 0.1% DMSO. The positive control of the test is the mercaptopicolinate known for its inhibitory action on hepatic production of glucose via the phosphoenolpyruvate carboxykinase. For short term treatments, the compounds are incubated for 3 h. For long term treatments, the compounds are incubated for 20 h at the moment when the hepatocytes are cultivated in RPMI and then added during the hepatic production test for 3 h. At the end of the 3 hours of incubation, the supernatant is recovered for measurement of glucose with a colorimetric method using glucose oxidase. The cells are lysed with a 0.1% NaOH aqueous solution in order to measure the amount of protein with the Lowry method. The results are expressed in mmols of glucose per mg of protein.

Where [1] appears, read: 20 h incubation, with two doses.

Turning to `CCOC(=O)Cc1cc(C(=O)NNC(=O)c2cccc(OC)c2)sc1-c1ccc(Cl)cc1` [compound 178, ethyl 2-[2-(4-chlorophenyl)-5-[[(3-methoxybenzoyl)-amino]carbamoyl]-3-thienyl]acetate], where the note is “3 h, 3 h incubation”, the activity at 50 µM was 92% and the activity at 100 µM came out at 72%.

For the molecule `O=C(O)Cc1cc(C(=O)c2ccccn2)sc1-c1ccc(Cl)cc1` [compound 149, 2-(2-(4-chlorophenyl)-5-picolinoylthiophen-3-yl)acetic acid], under “20 h, 20 h incubation”, the activity at 50 µM came out at 47% and the activity at 100 µM is 13%.

With `CCOC(=O)Cc1cc(S(=O)(=O)c2ccc(OC)cc2)sc1-c1ccc(Cl)c(Cl)c1` [compound 174, ethyl 2-[2-(3,4-dichlorophenyl)-5-(4-methoxyphenyl)sulfonyl-3-thienyl]acetate], under “3 h, 3 h incubation”, the activity at 50 µM came out at 73% and the activity at 100 µM was 77%.

As for `CCOC(=O)CN(C)C(=O)Cc1cc(C(=O)c2ccc(OC)cc2)sc1-c1ccccc1` [compound 87, ethyl 2-(2-(5-(4-methoxybenzoyl)-2-phenylthiophen-3-yl)-N-methylacetamido)acetate], where the note is “3 h, 3 h incubation”, the activity at 50 µM is 77% and the activity at 100 µM turned out to be 73%.

As to `CCON=C(c1ccc(Cl)c(Cl)c1)c1cc(CC(=O)O)c(-c2ccc(Cl)cc2)s1` [compound 167, 2-[2-(4-chlorophenyl)-5-[C-(3,4-dichlorophenyl)-N-ethoxy-carbonimidoyl]-3-thienyl]acetic acid], for the setting “3 h incubation, with two doses”, the “inhibition of hepatic production of glucose” value (from here on “inhibition”) was “strongest inhibitions”. For the same molecule, under “3 h, 3 h incubation”, the activity at 50 µM turned out to be 20% and the activity at 100 µM was found to be 23%.

Take `COc1ccc(C(=O)c2cc(CC(=O)NC(=N)N)c(-c3ccc(Cl)cc3)s2)cc1.Cl` [compound 185, N-carbamimidoyl-2-(2-(4-chlorophenyl)-5-(4-methoxybenzoyl)thiophen-3-yl) acetamide hydrochloride]: the “inhibition” value (3 h incubation, with two doses) is “strongest inhibitions”. Besides, where the note is “3 h, 3 h incubation”, the activity at 50 µM turned out to be 54% and the activity at 100 µM stood at 28%.

`O=C(O)Cc1cc(C(=O)c2ccco2)sc1-c1ccc(Cl)cc1F` [compound 144, 2-(2-(4-chloro-2-fluorophenyl)-5-(furan-2-carbonyl)thiophen-3-yl)acetic acid]: for the setting “3 h, 3 h incubation”, the activity at 50 µM was 74% and the activity at 100 µM was 52%.

As for `CCOC(=O)Cc1cc(C(=O)c2cccc(F)c2)sc1-c1ccc(OC)cc1` [compound 26, ethyl 2-(5-(3-fluorobenzoyl)-2-(4-methoxyphenyl)thiophen-3-yl)acetate], where the note is “3 h, 3 h incubation”, the activity at 50 µM came to 86% and the activity at 100 µM stood at 71%.

As for `COc1ccc(C(=O)c2cc(CC(=O)O)c(-c3ccc(Cl)cc3)s2)cc1` [compound 60, 2-(2-(4-chlorophenyl)-5-(4-methoxybenzoyl)thiophen-3-yl) acetic acid], under “3 h, 3 h incubation”, the activity at 50 µM came to 74% and the activity at 100 µM was 53%.

Regarding `CCOC(=O)Cc1cc(C(=O)c2cccc(OC)c2)sc1-c1ccc(Cl)cc1` [compound 12, ethyl 2-(2-(4-chlorophenyl)-5-(3-methoxybenzoyl)thiophen-3-yl)acetate], where the note is “3 h, 3 h incubation”, the activity at 50 µM worked out at 70% and the activity at 100 µM is 53%.

Take `CCOC(=O)Cc1cc(C(=O)c2ccccc2OC)sc1-c1ccc(OC)cc1` [compound 23, ethyl 2-(5-(2-methoxybenzoyl)-2-(4-methoxyphenyl)thiophen-3-yl)acetate]: where the note is “3 h, 3 h incubation”, the activity at 50 µM was determined as 79% and the activity at 100 µM turned out to be 73%.

In the case of `CCOC(=O)Cc1cc(C(=O)Cc2ccccc2)sc1-c1ccc(Cl)cc1` [compound 16, ethyl 2-(2-(4-chlorophenyl)-5-(2-phenylacetyl)thiophen-3-yl)acetate], under “3 h, 3 h incubation”, the activity at 50 µM is 69% and the activity at 100 µM turned out to be 63%.

For the molecule `COc1ccc(NC(=O)c2cc(CC(=O)O)c(-c3ccc(Cl)cc3)s2)cc1` [compound 121, 2-(2-(4-chlorophenyl)-5-((4-methoxyphenyl)carbamoyl)thiophen-3-yl)acetic acid], where the note is “3 h, 3 h incubation”, the activity at 50 µM is 80% and the activity at 100 µM is 66%.

On to `O=C(O)Cc1cc(C(=O)c2ccco2)sc1-c1ccc(Cl)c(Cl)c1` [compound 159, 2-[2-(3,4-dichlorophenyl)-5-(furan-2-carbonyl)-3-thienyl]acetic acid], for which the “inhibition” value (3 h incubation, at the dose of 50 μM) was “strongest inhibitions”. Also, under “3 h, 3 h incubation”, the activity at 50 µM came out at 40%.

As for `COc1ccc(-c2sc(C(=O)C3CCCCC3)cc2CC(=O)O)cc1` [compound 46, 2-(5-(cyclohexanecarbonyl)-2-(4-methoxyphenyl)thiophen-3-yl)acetic acid], under “3 h, 3 h incubation”, the activity at 50 µM amounted to 74% and the activity at 100 µM worked out at 55%.

Take `COC(=O)Cc1cc(C(=O)C2CCCCC2)sc1-c1ccccc1` [compound 6, methyl 2-(5-(cyclohexanecarbonyl)-2-phenylthiophen-3-yl)acetate]: under “3 h, 3 h incubation”, the activity at 50 µM is 72% and the activity at 100 µM amounted to 55%.

Regarding `CCOC(=O)Cc1cc(C(=O)CCc2ccccc2)sc1-c1ccc(Cl)cc1` [compound 17, ethyl 2-(2-(4-chlorophenyl)-5-(3-phenylpropanoyl)thiophen-3-yl)acetate], for the setting “3 h, 3 h incubation”, the activity at 50 µM stood at 76% and the activity at 100 µM is 73%.

`COc1ccc(C(=O)c2cc(CC(=O)OC(C)C)c(-c3ccc(Cl)cc3)s2)cc1` [compound 43, isopropyl 2-(2-(4-chlorophenyl)-5-(4-methoxybenzoyl)thiophen-3-yl)acetate]: under “3 h, 3 h incubation”, the activity at 50 µM was 82% and the activity at 100 µM amounted to 73%.

With `COc1ccc(C(=NO)c2cc(CC(=O)O)c(-c3ccc(Cl)cc3)s2)cc1` [compound 109, 2-(2-(4-chlorophenyl)-5-((hydroxyimino)(4-methoxyphenyl)methyl)thiophen-3-yl)acetic acid], for the setting “3 h, 3 h incubation”, the activity at 50 µM stood at 69% and the activity at 100 µM was 27%.

Turning to `COc1cccc(C(=O)c2cc(CC(=O)O)c(-c3ccc(Cl)cc3)s2)c1` [compound 59, 2-(2-(4-chlorophenyl)-5-(3-methoxybenzoyl)thiophen-3-yl) acetic acid], under “3 h, 3 h incubation”, the activity at 50 µM is 67% and the activity at 100 µM turned out to be 35%.

For the molecule `COc1cc(Cl)ccc1C(=O)c1cc(CC(=O)O)c(-c2ccc(Cl)cc2)s1` [compound 156, 2-[5-(4-chloro-2-methoxy-benzoyl)-2-(4-chlorophenyl)-3-thienyl]acetic acid], under “3 h incubation, with two doses”, the “inhibition” value is “strongest inhibitions”. Also, under “3 h, 3 h incubation”, the activity at 50 µM was 21% and the activity at 100 µM is 7%.

In the case of `COc1cccc(CNC(=O)c2cc(CC(=O)OC(C)C)c(-c3ccc(Cl)cc3)s2)c1` [compound 116, isopropyl 2-(2-(4-chlorophenyl)-5-((3-methoxybenzyl)-carbamoyl)thiophen-3-yl)acetate], for the setting “3 h, 3 h incubation”, the activity at 50 µM was 62% and the activity at 100 µM was found to be 67%.

In the case of `COc1ccc(C(=O)c2cc(CC(=O)NO)c(-c3ccc(Cl)cc3)s2)cc1` [compound 100, 2-(2-(4-chlorophenyl)-5-(4-methoxybenzoyl)thiophen-3-yl)-N-hydroxyacetamide], under setting [1], the “inhibition” value is “strongest inhibitions”. For the setting “20 h, 20 h incubation”, the activity at 50 µM worked out at 43% and the activity at 100 µM worked out at 20%.

As for `COc1ccc(-c2sc(C(=O)c3ccc(F)cc3F)cc2CC(=O)O)cc1` [compound 65, 2-(5-(2,4-difluorobenzoyl)-2-(4-methoxyphenyl)thiophen-3-yl)acetic acid], for the setting “3 h, 3 h incubation”, the activity at 50 µM was found to be 93% and the activity at 100 µM stood at 66%.

For the molecule `COC(=O)Cc1cc(C(=O)c2ccc(OC)cc2)sc1-c1ccccc1` [compound 5, methyl 2-(5-(4-methoxybenzoyl)-2-phenylthiophen-3-yl)acetate], for the setting “3 h, 3 h incubation”, the activity at 50 µM worked out at 68% and the activity at 100 µM amounted to 50%.

Consider `COc1cccc(C(=O)c2cc(CC(=O)O)c(-c3ccccc3)s2)c1` [compound 50, 2-(5-(3-methoxybenzoyl)-2-phenylthiophen-3-yl)acetic acid], for which, under “3 h, 3 h incubation”, the activity at 50 µM stood at 97% and the activity at 100 µM is 75%.

Turning to `COc1ccc(C(=O)c2cc(CC(=O)O)c(-c3ccccc3)s2)cc1` [compound 51, 2-(5-(4-methoxybenzoyl)-2-phenylthiophen-3-yl)acetic acid], for the setting “3 h, 3 h incubation”, the activity at 50 µM turned out to be 90% and the activity at 100 µM was determined as 54%.

As to `COCC(C(=O)O)c1cc(C(=O)c2ccc(OC)cc2)sc1-c1ccc(Cl)cc1` (stereo not shown) [compound 128, 2-(2-(4-chlorophenyl)-5-(4-methoxybenzoyl)thiophen-3-yl)-3-methoxypropanoic acid], under setting [1], the “inhibition” value was “strongest inhibitions”. Moreover, for the setting “20 h, 20 h incubation”, the activity at 50 µM was 41% and the activity at 100 µM was determined as 16%.
